Common to all, as to assay: Bliss excess, mean over the matrix (fraction); higher = more synergy
Assay [1] has as its system LC-1-sq (Squamous Cell Lung Carcinoma). The gist of the method:
(§1)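 Cell lines grown in DMEM/F12 or RPMI with 10% FBS were plated in 1536-well plates and held 24 hours at 37°C, 5% CO2 before 72 hours of exposure to two-drug dose matrices, with DMSO typically at 0.2%. CellTiter-Glo 2.0 luminescence gave viability, which was converted to inhibition. Vehicle wells were set to 0 and blank wells to 1. Combination Emax is the second-highest inhibition in the matrix, and Bliss excess is the observed combination effect minus the expected EA + EB − EA·EB, where EA and EB are the single-agent effects.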

In assay [2] the test system is DU-145 (Prostate Carcinoma). In outline:
as §1

Assay [3] has as its system HCC2998 (Colorectal Carcinoma). The gist of the method: as §1
Assay [4] relates to COLO-668 (Small Cell Lung Carcinoma). The gist of the method:
as §1

For assay [5], the system named is KGN (Other Solid Carcinomas). In outline: as §1
Assay [6] deals with ALL-SIL (T-Lymphoblastic Leukemia). The gist of the method:
as §1

Assay [7] has as its system Mo-T (Other Blood Carcinomas). The gist of the method: as §1
Assay [8] relates to CADO-ES1 (Ewing's Sarcoma). In outline:
as §1

The test system of assay [9] is NCI-H1355 (Lung Adenocarcinoma). In outline:
as §1

Assay [10] concerns MOG-G-UVW (Low Grade Glioma). In outline:
as §1

The test system of assay [11] is KMRC-1 (Kidney Carcinoma). In outline:
as §1

The subject of assay [12] is SK-LU-1 (Lung Adenocarcinoma). The gist of the method:
as §1

Assay [13] concerns SKN (Other Solid Carcinomas). In outline:
as §1

Assay [14] relates to HCC1500 (Breast Carcinoma). The gist of the method:
as §1

Assay [15] has as its system NCI-H1092 (Small Cell Lung Carcinoma). The gist of the method:
as §1

For assay [16], the system named is EFO-21 (Ovarian Carcinoma). The gist of the method:
as §1

Assay [17] concerns SW982 (Other Solid Carcinomas). The gist of the method: as §1
Assay [18] concerns OACM5-1 (Esophageal Adenocarcinoma). The gist of the method: as §1
Assay [19] has as its system NCI-H522 (Lung Adenocarcinoma). In outline:
as §1

The subject of assay [20] is ME-180 (Cervical Carcinoma). In outline: as §1

For `C[C@@H]1COCCN1c1cc(C2([S@](C)(=N)=O)CC2)nc(-c2ccnc3[nH]ccc23)n1` [AZD6738] + O=C(c1cc(Cc2n[nH]c(=O)c3ccccc23)ccc1F)N1CCN(C(=O)C2CC2)CC1 [Olaparib] (first compound max 10 µM, 7x7, partner max 10 µM), the Bliss excess in assay [1] is 0.0157; in [2], 0.0008; in [3], 0.0443; in assay [4] it was 0.0193; in assay [5], -0.0087; in assay [6], 0.0291. Moreover, the Bliss excess in [7] is 0.0311; in assay [8], 0.03; in [9], -0.0357; in assay [10] it was 0.0629; in [11], 0.0003; in assay [12], -0.03. Further, the Bliss excess was 0.0031 in assay [13]; 0.0412 in assay [14]; -0.0333 in assay [15]; -0.0375 in assay [16]; -0.0202 in [17]; 0.0071 in [18]. Moreover, the values for the Bliss excess in [19] and in assay [20] were 0.0229 and 0.0056, respectively.

For the compound `NC1(C(=O)N[C@@H](CCO)c2ccc(Cl)cc2)CCN(c2ncnc3[nH]ccc23)CC1` [Capivasertib] + CC(=O)c1c(C)c2cnc(Nc3ccc(N4CCNCC4)cn3)nc2n(C2CCCC2)c1=O [Palbociclib] (first compound max 10 µM, 7x7, partner max 10 µM), the Bliss excess in assay [1] was -0.0208; in assay [2], -0.0272; in assay [3], -0.0745; in assay [4], -0.0496; in [5], 0.0128; in assay [6], -0.0889. For the same compound, the Bliss excess in assay [7] was -0.0271; in assay [8], -0.0849; in assay [9] it was 0.0107; in [10] it was 0.0666; in assay [11], -0.0272; in assay [12], -0.0139. Further, the Bliss excess in assay [13] was -0.0383; in assay [14], 0.0017; in assay [15], -0.0612; in assay [16], -0.0533; in assay [17] it was -0.0523; in assay [18] it was -0.0299. For the same compound, the Bliss excess in assay [19] is -0.0696; in assay [20], -0.0638.

On to `NC1(C(=O)N[C@@H](CCO)c2ccc(Cl)cc2)CCN(c2ncnc3[nH]ccc23)CC1` [Capivasertib] + CC(C)n1c(=O)n(C)c2cnc3cc(F)c(-c4ccc(OCCCN5CCCCC5)nc4)cc3c21 [AZD1390] (first compound max 10 µM, 7x7, partner max 0.3 µM), for which the Bliss excess in assay [1] was -0.0461; in assay [2], -0.0598; in assay [3], -0.0275; in [4], -0.0298; in [5], -0.047; in assay [6], -0.0482. In addition, the Bliss excess is -0.0451 in assay [7]; -0.039 in assay [8]; -0.0206 in [9]; -0.0278 in assay [10]; -0.0645 in [11]; -0.0747 in assay [12]. Also, the Bliss excess in assay [13] is -0.055; in assay [14], -0.0334; in assay [15] it was -0.0596; in assay [16], -0.0361; in assay [17] it was -0.0696; in assay [18], -0.0676. For the same compound, the Bliss excess in assay [19] is -0.0502; in assay [20] it was -0.033.

Regarding `NC1(C(=O)N[C@@H](CCO)c2ccc(Cl)cc2)CCN(c2ncnc3[nH]ccc23)CC1` [Capivasertib] + CCN(CCO)CCCOc1ccc2c(Nc3cc(CC(=O)Nc4cccc(F)c4)[nH]n3)ncnc2c1 [AZD2811] (first compound max 10 µM, 7x7, partner max 1 µM), the Bliss excess in assay [1] is 0.0488; in assay [2] it was -0.0485; in [3] it was -0.0095; in assay [4] it was 0.0318; in assay [5], -0.0623; in [6], -0.0631. For the same compound, the Bliss excess in [7] was -0.0703; in assay [8], -0.0618; in assay [9] it was 0.045; in assay [10] it was 0.0415; in assay [11] it was -0.0421; in assay [12] it was -0.103. For the same compound, the Bliss excess was -0.0219 in assay [13]; 0.0228 in assay [14]; -0.0137 in assay [15]; -0.0156 in assay [16]; 0.0184 in assay [17]; -0.0245 in [18]. The Bliss excess is -0.0817 in assay [19] and -0.0096 in [20].

In the case of `NC1(C(=O)N[C@@H](CCO)c2ccc(Cl)cc2)CCN(c2ncnc3[nH]ccc23)CC1` [Capivasertib] + COc1nnc2ccc(N3CCC(c4ccc(OCCN5CCN(C)C(=O)[C@H]5C)cc4)CC3)nn12 [AZD5153] (first compound max 10 µM, 7x7, partner max 1 µM), the Bliss excess in assay [1] was 0.0814; in assay [2], 0.0276; in assay [3], -0.0046; in assay [4], 0.0552; in assay [5], 0.0358; in [6], -0.0024. Moreover, the Bliss excess in [7] was -0.0717; in assay [8] it was 0.0331; in assay [9], 0.0316; in assay [10], 0.0173; in [11], 0.0129; in assay [12], 0.0081. In addition, the Bliss excess was 0.0238 in assay [13]; 0.0118 in [14]; -0.0087 in [15]; -0.046 in assay [16]; -0.0535 in assay [17]; -0.019 in assay [18]. The Bliss excess in assay [19] was -0.0698; in assay [20], -0.051.

`NC1(C(=O)N[C@@H](CCO)c2ccc(Cl)cc2)CCN(c2ncnc3[nH]ccc23)CC1` [Capivasertib] + C[C@@H]1COCCN1C2=NC(=NC(=C2)C3(CC3)[S@](=N)(=O)C)C4=C5C=CNC5=NC=C4 [AZD6738] (first compound max 10 µM, 7x7, partner max 10 µM): the Bliss excess was -0.0984 in assay [1]; -0.0128 in assay [2]; -0.0629 in assay [3]; -0.0501 in assay [4]; -0.0783 in assay [5]; -0.0322 in [6]. The Bliss excess in assay [7] is 0.0465; in assay [8], -0.0284; in [9], -0.0317; in assay [10], -0.0348; in assay [11] it was -0.0504; in assay [12], -0.0162. For the same compound, the Bliss excess in [13] is -0.0477; in assay [14] it was 0.0226; in assay [15], -0.0055; in assay [16], -0.0322; in [17], -0.0382; in assay [18] it was 0.0338. Besides, the Bliss excess is -0.0483 in assay [19] and -0.066 in [20].

With `NC1(C(=O)N[C@@H](CCO)c2ccc(Cl)cc2)CCN(c2ncnc3[nH]ccc23)CC1` [Capivasertib] + Cn1cnc2c(F)c(Nc3ccc(Br)cc3Cl)c(C(=O)NOCCO)cc21 [Selumetinib] (first compound max 10 µM, 7x7, partner max 10 µM), the Bliss excess in assay [1] was 0.0027; in assay [2], 0.0037; in assay [3], -0.0654; in assay [4], -0.0088; in assay [5], -0.0041; in assay [6], 0.0381. The Bliss excess in assay [7] is 0.0563; in assay [8], -0.0008; in assay [9], 0.0132; in [10], 0.0622; in assay [11], 0.0071; in assay [12] it was -0.0486. The Bliss excess in assay [13] is -0.0264; in [14], 0.0004; in [15] it was -0.0225; in assay [16] it was -0.0352; in assay [17], 0.0235; in assay [18] it was 0.0183. For the same compound, the Bliss excess in assay [19] is -0.0098; in assay [20] it was -0.0232.

Values taken from the supplement of paper PMC11061612.
